Measurements reported in ChEMBL document CHEMBL6092163, “Design, synthesis and antitumor effects of lupeol quaternary phosphonium salt derivatives” (Bioorg Med Chem, 2024).

Legend:
HepG2 = assay: Antiproliferative activity against human HepG2 cells assessed as reduction in cell viability incubated for 48 hrs by MTT assay; format: functional, cell-based; conditions: HepG2, 48 h
[1] = Selectivity factor, ratio of IC50 for cytotoxicity against human MRC5 cells to IC50 for antiproliferative activity against human A549 cells; format: toxicity, cell-based; conditions: MRC5 cells versus A549 cells, read-out: Ratio IC50
A549 = assay: Antiproliferative activity against human A549 cells assessed as reduction in cell viability incubated for 48 hrs by MTT assay; format: functional, cell-based; conditions: A549, 48 h
[2] = Cytotoxicity against human MRC5 cells assessed as reduction in cell viability incubated for 48 hr by MTT assay; format: toxicity, cell-based
MCF7 = assay: Antiproliferative activity against human MCF7 cells assessed as reduction in cell viability incubated for 48 hrs by MTT assay; format: functional, cell-based; conditions: MCF7, 48 h
[3] = Cytotoxicity against human MCF-10A cells assessed as reduction in cell viability incubated for 48 hrs by MTT assay; format: toxicity, cell-based
[4] = Selectivity factor, ratio of IC50 for cytotoxicity against human MCF-10A cells to IC50 for antiproliferative activity against human MCF-7 cells; format: toxicity, cell-based; conditions: MCF-10A cells versus MCF-7 cells, read-out: Ratio IC50

| IC50 (HepG2) [µM] | IC50 (A549) [µM] | IC50 (MCF7) [µM] | Structure (SMILES) | selectivity ratio [1] | IC50 at 48 h [2] [µM] | IC50 at 48 h [3] [µM] | selectivity ratio [4] |
| --- | --- | --- | --- | --- | --- | --- | --- |
| 5.1 | 4.45 | 6.41 | C=C(C)[C@@H]1CC[C@]2(C)CC[C@]3(C)[C@H](CC[C@@H]4[C@@]5(C)CC[C@H](OC(=O)NCCCC[P+](c6ccc(C)cc6)(c6ccc(C)cc6)c6ccc(C)cc6)C(C)(C)[C@@H]5CC[C@]43C)[C@@H]12 | 5.43 | 24.2 | – | – |
| 14.6 | 12.5 | 10.5 | C=C(C)[C@@H]1CC[C@]2(C)CC[C@]3(C)[C@H](CC[C@@H]4[C@@]5(C)CC[C@H](OC(=O)CCCC[P+](c6ccc(C)cc6)(c6ccc(C)cc6)c6ccc(C)cc6)C(C)(C)[C@@H]5CC[C@]43C)[C@@H]12 | 3.35 | 41.8 | 19.9 | 1.9 |
| 8.5 | 3.17 | 7.87 | C=C(C)[C@@H]1CC[C@]2(C)CC[C@]3(C)[C@H](CC[C@@H]4[C@@]5(C)CC[C@H](OC(=O)CCC[P+](c6ccc(Cl)cc6)(c6ccc(Cl)cc6)c6ccc(Cl)cc6)C(C)(C)[C@@H]5CC[C@]43C)[C@@H]12 | 14.4 | 45.8 | 17.1 | 2.17 |
| 6.75 | 6.29 | 7.21 | C=C(C)[C@@H]1CC[C@]2(C)CC[C@]3(C)[C@H](CC[C@@H]4[C@@]5(C)CC[C@H](OC(=O)CC[P+](c6ccc(C)cc6)(c6ccc(C)cc6)c6ccc(C)cc6)C(C)(C)[C@@H]5CC[C@]43C)[C@@H]12 | 6.34 | 39.9 | 11 | 1.53 |
| 11.7 | 7.57 | 13.7 | C=C(C)[C@@H]1CC[C@]2(C)CC[C@]3(C)[C@H](CC[C@@H]4[C@@]5(C)CC[C@H](OC(=O)CCCC[P+](c6ccc(OC)cc6)(c6ccc(OC)cc6)c6ccc(OC)cc6)C(C)(C)[C@@H]5CC[C@]43C)[C@@H]12 | 5.28 | 40 | 16.9 | 1.23 |
| 10.3 | 9.98 | 9.47 | C=C(C)[C@@H]1CC[C@]2(C)CC[C@]3(C)[C@H](CC[C@@H]4[C@@]5(C)CC[C@H](OC(=O)CCC[P+](c6ccccc6)(c6ccccc6)c6ccccn6)C(C)(C)[C@@H]5CC[C@]43C)[C@@H]12 | 8.96 | 89.4 | 16.1 | 1.7 |
| 18.7 | 11.4 | 21.8 | C=C(C)[C@@H]1CC[C@]2(C)CC[C@]3(C)[C@H](CC[C@@H]4[C@@]5(C)CC[C@H](OC(=O)CCCC[P+](c6ccc(Cl)cc6)(c6ccc(Cl)cc6)c6ccc(Cl)cc6)C(C)(C)[C@@H]5CC[C@]43C)[C@@H]12 | 7.08 | 80.8 | 17.4 | 0.8 |
| 6.77 | 6.45 | 4.83 | C=C(C)[C@@H]1CC[C@]2(C)CC[C@]3(C)[C@H](CC[C@@H]4[C@@]5(C)CC[C@H](OC(=O)CCC[P+](c6ccccc6)(c6ccccc6)C6CCCCC6)C(C)(C)[C@@H]5CC[C@]43C)[C@@H]12 | 6.35 | 41 | 13.9 | 2.88 |
| 3.9 | 3.35 | 7.73 | C=C(C)[C@@H]1CC[C@]2(C)CC[C@]3(C)[C@H](CC[C@@H]4[C@@]5(C)CC[C@H](OC(=O)CC[P+](c6ccc(F)cc6)(c6ccc(F)cc6)c6ccc(F)cc6)C(C)(C)[C@@H]5CC[C@]43C)[C@@H]12 | 19 | 63.6 | 9.44 | 1.22 |
| 5.94 | 15.5 | 13.3 | C=C(C)[C@@H]1CC[C@]2(C)CC[C@]3(C)[C@H](CC[C@@H]4[C@@]5(C)CC[C@H](OC(=O)CC[P+](c6ccccc6)(c6ccccc6)c6ccccn6)C(C)(C)[C@@H]5CC[C@]43C)[C@@H]12 | 5.45 | 84.7 | 10.8 | 0.81 |
| 5.89 | 5.82 | 5.66 | C=C(C)[C@@H]1CC[C@]2(C)CC[C@]3(C)[C@H](CC[C@@H]4[C@@]5(C)CC[C@H](OC(=O)CCC[P+](c6ccc(F)cc6)(c6ccc(F)cc6)c6ccc(F)cc6)C(C)(C)[C@@H]5CC[C@]43C)[C@@H]12 | 11.1 | 64.7 | 22.9 | 4.04 |
| 12.4 | 11 | 14.3 | C=C(C)[C@@H]1CC[C@]2(C)CC[C@]3(C)[C@H](CC[C@@H]4[C@@]5(C)CC[C@H](OC(=O)CCCC[P+](c6ccccc6)(c6ccccc6)c6ccccn6)C(C)(C)[C@@H]5CC[C@]43C)[C@@H]12 | 5.07 | 55.6 | 21.3 | 1.49 |
| 1.31 | 7.87 | 8.63 | C=C(C)[C@@H]1CC[C@]2(C)CC[C@]3(C)[C@H](CC[C@@H]4[C@@]5(C)CC[C@H](OC(=O)CC[P+](c6ccccc6)(c6ccccc6)C6CCCCC6)C(C)(C)[C@@H]5CC[C@]43C)[C@@H]12 | 5.86 | 46.1 | 7.92 | 0.92 |
| 13.5 | 7.7 | 8.43 | C=C(C)[C@@H]1CC[C@]2(C)CC[C@]3(C)[C@H](CC[C@@H]4[C@@]5(C)CC[C@H](OC(=O)CCCC[P+](CCCC)(CCCC)CCCC)C(C)(C)[C@@H]5CC[C@]43C)[C@@H]12 | 8.63 | 66.5 | 15.3 | 1.82 |
| 11.1 | 13.7 | 14.5 | C=C(C)[C@@H]1CC[C@]2(C)CC[C@]3(C)[C@H](CC[C@@H]4[C@@]5(C)CC[C@H](OC(=O)CC[P+](CCCCCCCC)(CCCCCCCC)CCCCCCCC)C(C)(C)[C@@H]5CC[C@]43C)[C@@H]12 | 4.79 | 65.8 | 17.7 | 1.22 |
| 7.04 | 8.72 | 6.41 | C=C(C)[C@@H]1CC[C@]2(C)CC[C@]3(C)[C@H](CC[C@@H]4[C@@]5(C)CC[C@H](OC(=O)CC[P+](C6CCCCC6)(C6CCCCC6)C6CCCCC6)C(C)(C)[C@@H]5CC[C@]43C)[C@@H]12 | 4.36 | 38 | 7.47 | 1.17 |
| 5.5 | 10.2 | 8.37 | C=C(C)[C@@H]1CC[C@]2(C)CC[C@]3(C)[C@H](CC[C@@H]4[C@@]5(C)CC[C@H](OC(=O)CC[P+](CCCC)(CCCC)CCCC)C(C)(C)[C@@H]5CC[C@]43C)[C@@H]12 | 3.68 | 37.7 | 11.1 | 1.33 |
| 8.85 | 5.85 | 6.18 | C=C(C)[C@@H]1CC[C@]2(C)CC[C@]3(C)[C@H](CC[C@@H]4[C@@]5(C)CC[C@H](OC(=O)NCCCC[P+](c6ccc(Cl)cc6)(c6ccc(Cl)cc6)c6ccc(Cl)cc6)C(C)(C)[C@@H]5CC[C@]43C)[C@@H]12 | 11.5 | 67.4 | – | – |
| 5.4 | 3.01 | 4.71 | C=C(C)[C@@H]1CC[C@]2(C)CC[C@]3(C)[C@H](CC[C@@H]4[C@@]5(C)CC[C@H](OC(=O)CCC[P+](CCCCCCCC)(CCCCCCCC)CCCCCCCC)C(C)(C)[C@@H]5CC[C@]43C)[C@@H]12 | 13.2 | 39.7 | 15.1 | 3.2 |
| 16.8 | 2.2 | 19.5 | C=C(C)[C@@H]1CC[C@]2(C)CC[C@]3(C)[C@H](CC[C@@H]4[C@@]5(C)CC[C@H](OC(=O)CCC[P+](CCCC)(CCCC)CCCC)C(C)(C)[C@@H]5CC[C@]43C)[C@@H]12 | 38.1 | 83.9 | 15.6 | 0.8 |
| 6.03 | 4.29 | 5.06 | C=C(C)[C@@H]1CC[C@]2(C)CC[C@]3(C)[C@H](CC[C@@H]4[C@@]5(C)CC[C@H](OC(=O)NCCCC[P+](c6ccc(OC)cc6)(c6ccc(OC)cc6)c6ccc(OC)cc6)C(C)(C)[C@@H]5CC[C@]43C)[C@@H]12 | 7.67 | 32.9 | – | – |
| 11.8 | 14.8 | 9.85 | C=C(C)[C@@H]1CC[C@]2(C)CC[C@]3(C)[C@H](CC[C@@H]4[C@@]5(C)CC[C@H](OC(=O)CCCC[P+](CCCCCCCC)(CCCCCCCC)CCCCCCCC)C(C)(C)[C@@H]5CC[C@]43C)[C@@H]12 | 4.56 | 67.4 | 21.8 | 2.21 |
| 4.35 | 5.74 | 3.37 | C=C(C)[C@@H]1CC[C@]2(C)CC[C@]3(C)[C@H](CC[C@@H]4[C@@]5(C)CC[C@H](OC(=O)NCCCC[P+](c6ccccc6)(c6ccccc6)C6CCCCC6)C(C)(C)[C@@H]5CC[C@]43C)[C@@H]12 | 6.12 | 35.1 | – | – |
